ChEMBL document CHEMBL1201862, “PubChem BioAssay data set” (2004)
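1) Cells in 96-well plates. 2) Compound, 48 h, 5 concentrations. 3) Linear interpolation between surrounding doses. 4) Unreached endpoint = highest concentration. Abbreviation: GI50, concentration required for 50% inhibition of growth.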 Active and inactive are the calls of the source. Cut-off read from the data, not from the text of the source: active = GI50 up to about 1.1 µM and inactive = higher.

Tests used:
Assay in all cases: NCI anticancer screen, dose series, 48 h
IGROV-1 = test system: IGROV-1
COLO 205 = test system: COLO 205
SNB-75 = test system: SNB-75
SK-MEL-2 = test system: SK-MEL-2
OVCAR-4 = test system: OVCAR-4
SK-MEL-28 = test system: SK-MEL-28
A549 = test system: A549
DU-145 = test system: DU-145
UO-31 = test system: UO-31
HOP-62 = test system: HOP-62
HT-29 = test system: HT-29
U-251 = test system: U-251
OVCAR-3 = test system: OVCAR-3
HCT-116 = test system: HCT-116
MOLT-4 = test system: MOLT-4
A498 = test system: A498
ACHN = test system: ACHN
SK-OV-3 = test system: SK-OV-3
PC-3 = test system: PC-3
UACC-257 = test system: UACC-257

Measured: GI50

C=C(Cl)C(Cl)(CCl)CCC(Br)C(C)(C)Br (stereo not drawn)
inactive: IGROV-1 > 10 µM | COLO 205 > 10 µM | SNB-75 > 10 µM | SK-MEL-2 > 10 µM | OVCAR-4 > 10 µM | SK-MEL-28 > 10 µM | A549 > 10 µM | DU-145 > 10 µM | UO-31 > 10 µM | HOP-62 > 10 µM | HT-29 > 10 µM | U-251 > 10 µM | OVCAR-3 > 10 µM | HCT-116 > 10 µM | MOLT-4 > 10 µM | A498 > 10 µM | ACHN > 10 µM | SK-OV-3 > 10 µM | PC-3 > 10 µM

CC1=NN(c2nc(N)nc(/C(C#N)=C/c3cccn3-c3cc(Cl)cc(Cl)c3)n2)C(C)(C)C1
inactive: IGROV-1 > 100 µM | COLO 205 > 100 µM | SNB-75 17 µM | SK-MEL-2 > 100 µM | OVCAR-4 > 100 µM | SK-MEL-28 > 100 µM | A549 > 100 µM | DU-145 > 100 µM | UO-31 > 100 µM | HOP-62 10.1 µM | HT-29 > 100 µM | U-251 7.82 µM | UACC-257 > 100 µM | OVCAR-3 > 100 µM | HCT-116 > 100 µM | A498 > 100 µM | ACHN > 100 µM | SK-OV-3 > 100 µM | PC-3 11.5 µM

CN(C)C(=S)NC(=S)Nc1ccc2ccccc2c1
inactive: IGROV-1 14.4 µM | COLO 205 13.7 µM | SNB-75 24.3 µM | SK-MEL-2 13.9 µM | OVCAR-4 24.7 µM | SK-MEL-28 14.5 µM | A549 6.73 µM | DU-145 18.2 µM | UO-31 16.1 µM | HOP-62 18.4 µM | HT-29 12 µM | U-251 11.6 µM | UACC-257 8.95 µM | OVCAR-3 14.4 µM | HCT-116 6.65 µM | MOLT-4 4.93 µM | A498 12.6 µM | ACHN 18.6 µM | SK-OV-3 24.8 µM | PC-3 6.1 µM

Cc1cccc(C(C)C)c1NC(=O)C(=O)CC(=O)c1sc(Nc2ccccc2Cl)nc1C
inactive: IGROV-1 46.3 µM | COLO 205 29.9 µM | SNB-75 21.7 µM | SK-MEL-2 12.8 µM | OVCAR-4 83.4 µM | SK-MEL-28 > 100 µM | A549 31.4 µM | DU-145 71.4 µM | UO-31 18.9 µM | HOP-62 > 100 µM | U-251 23.1 µM | UACC-257 54.5 µM | OVCAR-3 32 µM | HCT-116 8.79 µM | MOLT-4 25.6 µM | A498 > 100 µM | ACHN 51.4 µM | SK-OV-3 20.7 µM | PC-3 22.4 µM

O=C(O)/C=C(/CC(=O)O)C(=O)O
inactive: IGROV-1 20.9 µM | COLO 205 17.6 µM | SNB-75 14.1 µM | SK-MEL-2 19.5 µM | OVCAR-4 25.8 µM | SK-MEL-28 21.2 µM | A549 18.6 µM | DU-145 19.9 µM | UO-31 17.2 µM | HOP-62 16.7 µM | HT-29 21.8 µM | U-251 19.4 µM | UACC-257 33.1 µM | OVCAR-3 15.7 µM | HCT-116 18.2 µM | MOLT-4 19.1 µM | A498 16.3 µM | ACHN 18.1 µM | SK-OV-3 21.5 µM | PC-3 19.6 µM

CNc1ccccc1S(=O)(=O)c1ccccc1[N+](=O)[O-]
inactive: IGROV-1 > 100 µM | COLO 205 > 100 µM | SNB-75 52.4 µM | SK-MEL-2 88.3 µM | OVCAR-4 27.2 µM | SK-MEL-28 91 µM | A549 77.3 µM | DU-145 > 100 µM | UO-31 43.6 µM | HOP-62 > 100 µM | HT-29 93.8 µM | U-251 69.7 µM | OVCAR-3 68.4 µM | HCT-116 66.5 µM | MOLT-4 30.8 µM | A498 > 100 µM | ACHN 56.6 µM | SK-OV-3 > 100 µM | PC-3 52.4 µM

Cc1ccc(/N=C2N=C(Cl)/C(=C\c3ccco3)N\2)cc1
inactive: IGROV-1 > 100 µM | COLO 205 > 100 µM | SNB-75 > 100 µM | SK-MEL-2 > 100 µM | OVCAR-4 > 100 µM | SK-MEL-28 > 100 µM | A549 > 100 µM | DU-145 > 100 µM | UO-31 > 100 µM | HOP-62 > 100 µM | HT-29 > 100 µM | U-251 > 100 µM | UACC-257 > 100 µM | OVCAR-3 > 100 µM | HCT-116 > 100 µM | MOLT-4 > 91.8 µM | A498 > 100 µM | ACHN > 100 µM | SK-OV-3 > 100 µM | PC-3 > 100 µM

O=C(CCN1CCCCC1)Nc1ccc2c(c1)C(=O)c1ccc(NC(=O)CCN3CCCCC3)cc1C2=O
inactive: IGROV-1 3.61 µM | COLO 205 10.9 µM | SNB-75 3.82 µM | SK-MEL-2 5.16 µM | OVCAR-4 3.5 µM | SK-MEL-28 17.5 µM | A549 4.84 µM | DU-145 14 µM | UO-31 12.4 µM | HOP-62 2.12 µM | HT-29 3.24 µM | U-251 4.98 µM | UACC-257 16.3 µM | OVCAR-3 8.11 µM | HCT-116 1.71 µM | MOLT-4 3.83 µM | A498 13.7 µM | ACHN 11.6 µM | SK-OV-3 13.2 µM | PC-3 2.26 µM

O=C1CC(NC2CC(=O)c3c(Br)sc(Br)c32)c2c(Br)sc(Br)c21 (stereo not drawn)
inactive: IGROV-1 2.99 µM | COLO 205 3.04 µM | SNB-75 15.7 µM | SK-MEL-2 3.51 µM | OVCAR-4 8.51 µM | SK-MEL-28 7.85 µM | A549 17.5 µM | DU-145 4.58 µM | UO-31 2.24 µM | HOP-62 2.99 µM | HT-29 2.84 µM | U-251 1.82 µM | UACC-257 2.03 µM | OVCAR-3 4.44 µM | HCT-116 2.14 µM | MOLT-4 2.26 µM | A498 18.6 µM | ACHN 2.39 µM | SK-OV-3 17.8 µM | PC-3 2.48 µM

CC(NNC(=O)c1cc[n+]([BH2-]C#N)cc1)C(F)(F)F (stereo not drawn)
inactive: IGROV-1 > 100 µM | COLO 205 > 100 µM | SNB-75 > 100 µM | SK-MEL-2 > 100 µM | OVCAR-4 > 100 µM | SK-MEL-28 > 100 µM | A549 > 100 µM | DU-145 > 100 µM | UO-31 > 100 µM | HOP-62 > 100 µM | HT-29 > 100 µM | U-251 > 100 µM | UACC-257 > 100 µM | OVCAR-3 > 100 µM | HCT-116 > 100 µM | MOLT-4 > 100 µM | A498 > 100 µM | ACHN > 100 µM | SK-OV-3 > 100 µM | PC-3 > 100 µM

O=CN(O)CC(=O)O
inactive: IGROV-1 > 100 µM | COLO 205 > 100 µM | SNB-75 > 100 µM | SK-MEL-2 > 100 µM | OVCAR-4 > 100 µM | SK-MEL-28 > 100 µM | A549 > 100 µM | DU-145 > 100 µM | UO-31 > 100 µM | HOP-62 > 100 µM | HT-29 > 100 µM | U-251 > 100 µM | UACC-257 > 100 µM | OVCAR-3 > 100 µM | HCT-116 > 100 µM | MOLT-4 > 100 µM | A498 > 100 µM | ACHN > 100 µM | SK-OV-3 > 100 µM | PC-3 > 100 µM

CCCC(=O)OCC1OC(n2cc(F)c(=O)[nH]c2=O)C(F)C1O (stereo not drawn)
inactive: IGROV-1 > 76.7 µM | COLO 205 24.5 µM | SNB-75 > 55 µM | SK-MEL-2 > 100 µM | OVCAR-4 > 100 µM | SK-MEL-28 > 100 µM | A549 5.85 µM | DU-145 5.5 µM | UO-31 74.8 µM | HOP-62 4.57 µM | HT-29 > 86.3 µM | U-251 10.8 µM | UACC-257 > 59.7 µM | OVCAR-3 31 µM | HCT-116 > 22.4 µM | MOLT-4 > 35.6 µM | A498 8.39 µM | ACHN 10.9 µM | SK-OV-3 > 74 µM | PC-3 > 100 µM

O=C(/C=C/c1ccc2ccccc2c1)NCc1ccc(C(=O)NCCc2ccccc2)cc1
inactive: COLO 205 > 100 µM | SNB-75 41.5 µM | SK-MEL-2 > 100 µM | OVCAR-4 > 100 µM | SK-MEL-28 > 100 µM | A549 > 100 µM | DU-145 > 100 µM | UO-31 > 100 µM | HOP-62 > 100 µM | U-251 > 100 µM | UACC-257 > 100 µM | OVCAR-3 > 100 µM | HCT-116 > 100 µM | MOLT-4 > 100 µM | A498 > 100 µM | ACHN > 100 µM | SK-OV-3 > 100 µM | PC-3 > 100 µM

CCOC(=O)/C(=C\NC(=S)Nc1ccc(OCC)cc1)C(=O)c1ccccc1
inactive: IGROV-1 > 100 µM | COLO 205 > 100 µM | SNB-75 44.2 µM | SK-MEL-2 > 100 µM | OVCAR-4 79.8 µM | SK-MEL-28 > 100 µM | A549 > 100 µM | DU-145 > 100 µM | HOP-62 > 100 µM | HT-29 > 100 µM | U-251 > 100 µM | UACC-257 > 100 µM | OVCAR-3 > 100 µM | HCT-116 > 100 µM | MOLT-4 > 100 µM | A498 20.7 µM | ACHN > 100 µM | SK-OV-3 > 100 µM | PC-3 > 100 µM
